Data reported in PubChem BioAssay (NCI).
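Results reflect a 48-hour exposure of cells in 96-well plates to compound at five concentrations. GI50 = concentration required for 50% inhibition of growth. TGI: concentration producing complete growth inhibition.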

Columns and labels:
Assay in all cases: NCI anticancer screen, dose series, 48 h
[1] = tested on: U251 CNS
[2] = tested on: 786-0 renal
[3] = tested on: HT29 colon
[4] = tested on: MDA-MB-435
[5] = tested on: OVCAR-8 ovarian
[6] = tested on: HCC-2998 colon
[7] = tested on: MDA-MB-231 breast
[8] = tested on: BT-549 breast
[9] = tested on: SK-MEL-2 melanoma
[10] = tested on: COLO 205 colon

Structure (SMILES)	GI50 [1] [µM]	TGI [1] [µM]	GI50 [2] [µM]	TGI [2] [µM]	GI50 [3] [µM]	TGI [3] [µM]	GI50 [4] [µM]	TGI [4] [µM]	GI50 [5] [µM]	TGI [5] [µM]	GI50 [6] [µM]	TGI [6] [µM]	GI50 [7] [µM]	TGI [7] [µM]	GI50 [8] [µM]	TGI [8] [µM]	GI50 [9] [µM]	TGI [9] [µM]	GI50 [10] [µM]	TGI [10] [µM]
CC(=O)c1cc2c(c3ccsc13)-c1ccccc1CC2	34.7	> 100	35.2	> 100	58.4	> 100	4.76	> 100	53.1	> 100	8.95	27.3	16.4	67.1	37	> 100	26.5	83	42	> 100
O=C(Nc1ccccc1O)c1ccc(CNC(=O)c2sccc2Nc2ccnc(C(F)(F)F)c2)cc1	5.44	20.8	9.92	25	6.21	27	4.09	17.8	3.44	41.2	10.1	22.4	9.05	27.4	5.54	35	6.97	28.5	5.38	19.2
COc1ccc(Cl)cc1NC(=O)c1cccc([N+](=O)[O-])c1O	–	> 62.7	–	58.7	–	> 95.6	–	> 100	–	> 100	–	62.1	–	> 100	–	27.4	–	24.8	–	32
CC(=O)/C=C/C1=C(c2cccs2)c2ccccc2CC1	22.8	51.1	49.4	> 100	26.9	68.4	25.8	51.3	38.9	> 100	25.8	59.8	23.3	59.1	32.6	> 100	25.6	71.2	23.1	49
CCCCCCC#CC#Cc1cccc(=O)o1	2.07	4.92	0.991	2.72	3.69	34.6	1.39	3.28	1.14	5.47	2.52	6.12	1.64	3.72	0.556	2.7	9.27	> 100	9.5	20
C#Cc1cccc(Oc2ccc(NC(=O)CCl)cc2)c1	> 82.5	> 82.5	> 82.5	> 82.5	> 82.5	> 82.5	> 82.5	> 82.5	64.3	> 82.5	> 82.5	> 82.5	> 82.5	> 82.5	37.2	> 82.5	> 82.5	> 82.5	21.2	73.3
Oc1c(I)cc(-c2nc3ccccc3s2)cc1CN(Cc1ccccn1)Cc1ccccn1	0.267	12.9	0.347	2.62	0.668	27.6	0.428	14.3	0.335	37.5	0.43	43.9	0.217	10.4	0.394	29.8	0.362	17.8	0.352	20.7
COc1ccc(CC(NC(=O)[C@H](C)NC(=O)CN2CCOCC2)C(=O)N[C@@H](Cc2ccccc2)C(=O)[C@@]2(C)CO2)cc1 (stereo partly drawn)	0.271	1.07	0.364	1.76	0.339	> 33.9	0.069	0.484	0.342	–	0.174	0.324	0.24	1.1	0.154	0.391	0.264	0.974	0.308	0.933
CCCCCCCCCCCCCC(=O)C(C)N (stereo not drawn)	8.29	21.7	12.4	26.2	3.89	13.7	13.8	28	18.4	36.1	2.87	8.2	2.37	6.06	15.4	31.1	16	31.2	1.95	3.87
COc1cc(C2=NN(c3ccc(S(N)(=O)=O)cc3)C(c3ccc(Cl)cc3)C2)cc(OC)c1OC (stereo not drawn)	3.84	> 100	6.43	> 100	4.15	> 100	3.74	> 100	4.85	> 100	6.93	> 100	3.95	> 100	3.8	46.4	3.35	14.1	3.52	12.2
NCCP(=O)(O)O	–	> 100	–	> 100	–	> 100	–	> 100	–	> 100	–	> 100	–	> 100	–	> 100	–	> 100	–	> 100
COC(=O)C1(C2CC/C(C)=C/CC/C(C)=C/CC[C@@]3(C)O[C@@H]3C2)CC1 (stereo partly drawn)	39.1	> 100	35.5	> 70	68.1	> 100	32.1	98.3	> 44.3	> 65.1	–	> 20.8	> 48.6	> 74.7	> 100	> 100	> 100	> 100	> 56.5	> 100
C1=C(c2ccccc2)C(c2ccc(OCCN3CCCCC3)cc2)Oc2ccccc21 (stereo not drawn)	1.65	3.18	1.5	2.83	1.76	3.86	1.64	3.03	2.3	5.91	1.72	3.38	1.86	3.51	1.61	3.07	2.03	4.33	1.62	3.15
O=C(Nc1cccc(O)c1)c1cccc(NC2=C(Cl)C(=O)N(Cc3ccccc3)C2=O)c1	13.7	26.6	15.2	30.2	22.2	49.7	2.59	11.4	13.1	43.5	15.8	29.4	11.9	31.9	0.396	2.05	4.63	19.3	27.4	67
CC(C)(C)[Si](C)(C)OCC1C=CC(n2cnc3c(N)ncnc32)O1 (stereo not drawn)	–	72.3	–	> 100	–	> 100	–	57.1	–	> 100	–	> 100	–	> 73.6	–	> 54.7	–	> 100	–	> 100
